Laboratory results from ChEMBL document CHEMBL1147155, “1,4-Dihydroindeno[1,2-c]pyrazoles with acetylenic side chains as novel and potent multitargeted receptor tyrosine kinase inhibitors with low affinity for the hERG ion channel” (J Med Chem, 2007).

How the values were obtained:
Type in all cases: ADME, organism-based
[1] = Half life in CD1 mouse at 3 mg/kg, iv; design: dose 3 mg/kg, route intravenous; conditions: in vivo
[2] = Bioavailability in CD1 mouse at 10 mg/kg, po; conditions: in vivo
[3] = Clearance in CD1 mouse at 3 mg/kg, iv; design: dose 3 mg/kg, route intravenous; conditions: in vivo
[4] = AUC in CD1 mouse at 10 mg/kg, po; design: dose 10 mg/kg, route oral; conditions: plasma

| half-life [1] [h] | bioavailability [2] [%] | clearance [3] [mL/min/kg] | AUC [4] [ng·h/mL] | SMILES |
| --- | --- | --- | --- | --- |
| 0.3 | 22 | 56.7 | – | COCCOCC#Cc1cc(-c2n[nH]c3c2Cc2cc(Cn4cncn4)ccc2-3)cs1 |
| – | 17 | – | 3500 | CN1CCN(Cc2ccc3c(c2)Cc2c(-c4csc(C#CCNC(=O)c5ccccc5)c4)n[nH]c2-3)CC1 |
| – | 0 | – | – | CN1CCN(Cc2ccc3c(c2)Cc2c-3n[nH]c2-c2csc(C#CCNC(=O)Nc3ccccc3)c2)CC1 |
| 3 | – | 41.7 | – | C(#Cc1cc(-c2n[nH]c3c2Cc2cc(Cn4cncn4)ccc2-3)cs1)COc1ccccc1 |
| 5.5 | 75 | – | – | CN1CCN(Cc2ccc3c(c2)Cc2c-3n[nH]c2-c2csc(C#CCOc3ccccc3)c2)CC1 |
